Measurements published in patent publication US20160368919A1, “NOVEL PYRIDINE PYRAZINONES AS BET-FAMILY BROMODOMAIN INHIBITORS” (Pfizer Inc., priority 2015, published 2016).

What was measured:
BRD4 BD1 = molecular target: T1, BRD4 BD1 (Homo sapiens, UniProt O60885); assay: BRD4 BD1 Fluorescence Polarization (FP) competition binding assay; settings: BRD4 BD1 40 nM, probe PFI-411FP 2 nM
T1 construct: His-tagged BRD4 BD1 (44-160); made in house
Experimental: Compound binding to BRD4 BD1 was assessed with a FP competition binding assay. […] All assay components were diluted in 50 mM HEPES pH 7.4 containing 0.08% bovine serum albumin (assay buffer). To start the assay, 8 μL of BRD4 BD1 was added to each well of a low volume 384-well black flat bottom microtiter plate (Corning 3820) containing 4 μl of various concentrations of test compound (each plate also contained positive and negative control wells to define the upper and lower limits of the assay signal). After addition of BRD4 BD1, the assay plate was incubated at room temperature (RT, 20° C.). After 15 minutes, 4 μL of PFI-411FP was added to each well and the assay plate was placed in the dark at RT. The final assay concentration (FAC) of PFI-411FP was 2 nM, the FAC of BRD4 BD1 was 40 nM, the FAC of test compound ranged from 120 to 0.0012 μM and the FAC of DMSO was 0.4%. After 60 min, polarization values were measured with an Envision 2103 multilabel reader (Perkin Elmer) using a Cy5 dual enhanced mirror and excitation at 620 nm and emission at 688 nm. The percent (%) effect was calculated for each concentration of test compound and was relative to the amount of polarization signal produced by the positive and negative control wells contained within each assay plate. The concentrations and % effect values for test compounds were plotted versus each other with a proprietary curve fitting program using a four-parameter logistic dose response equation and the concentration of compound required for 50% effect (IC50) was determined. The Ki values of competitive inhibitors were calculated using the equation described by Nikolovska-Coleska et al. (Development and optimization of a binding assay for the XIAP BIR3 domain using fluorescence polarization. Analytical Biochemistry (2004) 332: 261-273).

[1] = tested on: LPS-induced IL-6 production in human whole blood; assay: IL-6 human whole blood (HWB) assay, LPS-stimulated, HTRF detection; format: cell-based; settings: 1 ng/ml LPS, 4 hours
Experimental: Compound effect on IL-6 production was determined using lipopolysaccharide (LPS)-stimulated human whole blood and an HTRF (Homogeneous Time-Resolved Fluorescence) IL-6 detection kit (Human IL6 HTRF Assay CisBio 62IL6PEC). HWB was collected by venous puncture from healthy donors, transferred to a 50 ml polypropylene tube containing sodium heparin (14.3 units per mL of HWB) and then placed in a 37° C. water bath until use. To start the assay, 80 μL of heparin-treated HWB containing 1 ng/ml of LPS (equivalent to LPS ˜EC80 with regard to stimulation of IL-6 production in HWB under these assay conditions) was added to each well of a 384-well, sterile, endotoxin-free, polypropylene plate (Greiner 781281) containing 160 nL of various concentrations of test compound (each plate also contained positive and negative control wells to define the upper and lower limits of the assay signal). The plate was then placed in a thermoshaker incubator set to 370C (Boekel 270440). The final assay concentration (FAC) of test compound ranged from 60 to 0.0006 μM and the FAC of DMSO was 0.2%. After 4 hours, the assay plate was removed from the incubator and centrifuged at 700×g for 10 minutes. 5 μL of the resulting upper plasma layer was removed from each well and diluted 1:2 with 1×Dulbecco's phosphate buffered saline (DPBS). 5 μL of this diluted plasma was then transferred to a white 384-well low volume assay plate (Greiner 784080) containing 5 μL of combined anti-IL-6-Cryptate and anti-IL-6-XL665 detection antibodies (per manufacturer's protocol). The plate was then sealed with a Top Seal (Perkin Elmer 6005185) and incubated at room temperature (RT, 20° C.). After 16-18 hrs (overnight), the HTRF assay signal was read on an Envision 2103 plate reader using a Lance Delfia Dual/Bias mirror TRF laser excitation and emission was measured at 665 nm and 615 nm respectively. The percent (%) effect was calculated for each concentration of test compound and was relative to the amount of HTRF signal produced by the positive and negative control wells contained within each assay plate. The concentrations and % effect values for test compounds were plotted versus each other with a proprietary curve fitting program using a four-parameter logistic dose response equation and the concentration of compound required for 50% effect (IC50) was determined.

Compound	IC50 (BRD4 BD1)	IC50 [1]
COc1ccccc1[C@H](C)n1c(=O)c(NCCC(=O)O)nc2ccc(N(C)C(C)=O)nc21 [Example 1, N-{6-[acetyl(methyl)amino]-4-[(1S)-1-(2-methoxyphenyl)ethyl]-3-oxo-3,4-dihydropyrido[2,3-b]pyrazin-2-yl}-beta-alanine]	730 nM	38400 nM
CCN(C(C)=O)c1ccc2nc(NCCC(=O)O)c(=O)n([C@@H](C)c3ccccc3OC)c2n1 [Example 2, N-{6-[acetyl(ethyl)amino]-4-[(1S)-1-(2-methoxyphenyl)ethyl]-3-oxo-3,4-dihydropyrido[2,3-b]pyrazin-2-yl}-beta-alanine]	2710 nM	
CC[C@@H](c1ccccc1)n1c(=O)c(NCCC(=O)O)nc2ccc(N(C)C(C)=O)nc21 [Example 3, N-{6-[acetyl(methyl)amino]-3-oxo-4-[(1S)-1-phenylpropyl]-3,4-dihydropyrido[2,3-b]pyrazin-2-yl}-beta-alanine]	117 nM	2050 nM
CC[C@@H](c1ccccc1)n1c(=O)c(NCCC(=O)O)nc2ccc(N(C)C(=O)CO)nc21 [Example 4, N-{6-[(hydroxyacetyl)(methyl)amino]-3-oxo-4-[(1S)-1-phenylpropyl]-3,4-dihydropyrido[2,3-b]pyrazin-2-yl}-beta-alanine]	956 nM	14100 nM
CNc1nc2ccc(N(C)C(C)=O)nc2n([C@@H](C)c2ccccc2OC)c1=O [Example 5, N-{4-[(1S)-1-(2-methoxyphenyl)ethyl]-2-(methylamino)-3-oxo-3,4-dihydropyrido[2,3-b]pyrazin-6-yl}-N-methylacetamide]	653 nM	1580 nM
CC[C@@H](c1ccccc1)n1c(=O)c(NCCC(=O)O)nc2ccc(N(C)C(=O)C(C)C)nc21 [Example 6, N-{6-[methyl(2-methylpropanoyl)amino]-3-oxo-4-[(1S)-1-phenylpropyl]-3,4-dihydropyrido[2,3-b]pyrazin-2-yl}-beta-alanine]	155 nM	1420 nM
CCCC(=O)N(C)c1ccc2nc(NCCC(=O)O)c(=O)n([C@@H](CC)c3ccccc3)c2n1 [Example 7, N-{6-[butanoyl(methyl)amino]-3-oxo-4-[(1S)-1-phenylpropyl]-3,4-dihydropyrido[2,3-b]pyrazin-2-yl}-beta-alanine]	130 nM	2390 nM
CC[C@@H](c1ccccc1)n1c(=O)c(NCCC(=O)O)nc2ccc(N(C)C(=O)C3CCC3)nc21 [Example 8]	122 nM	1800 nM
CC[C@@H](c1ccccc1)n1c(=O)c(NCCC(=O)O)nc2ccc(N(C)C(=O)NC)nc21 [Example 9, N-{6-[methyl(methylcarbamoyl)amino]-3-oxo-4-[(1S)-1-phenylpropyl]-3,4-dihydropyrido[2,3-b]pyrazin-2-yl}-beta-alanine]	150 nM	3830 nM
CCC(=O)N(C)c1ccc2nc(NCCC(=O)O)c(=O)n([C@@H](CC)c3ccccn3)c2n1 [Example 11, N-{6-[methyl(propanoyl)amino]-3-oxo-4-[(1S)-1-(pyridin-2-yl)propyl]-3,4-dihydropyrido[2,3-b]pyrazin-2-yl}-beta-alanine]	251 nM	2680 nM
CCC(=O)N(C)c1ccc2nc(NCCC(=O)O)c(=O)n(C3(c4ccccc4)CCC3)c2n1 [Example 12, N-{6-[methyl(propanol)amino]-3-oxo-4-(1-phenylcyclobutyl)-3,4-dihydropyrido[2,3-b]pyrazin-2-yl}-beta-alanine]	805 nM	18100 nM
CCC(=O)N(C)c1ccc2nc(NCCC(=O)O)c(=O)n([C@@H]3COC[C@H]3c3ccccc3)c2n1 [Example 15, N-{6-[methyl(propanoyl)amino]-3-oxo-4-[(3S,4S)-4-phenyltetrahydrofuran-3-yl]-3,4-dihydropyrido[2,3-b]pyrazin-2-yl}-beta-alanine]	10200 nM	
CC[C@H](COC)n1c(=O)c(NCCC(=O)O)nc2ccc(N(C)C(C)=O)nc21 [Example 16, N-{6-[acetyl(methyl)amino]-4-[(2R)-1-methoxybutan-2-yl]-3-oxo-3,4-dihydropyrido[2,3-b]pyrazin-2-yl}-beta-alanine]	3880 nM	
CCC(=O)N(C)c1ccc2nc(NCC(=O)NC)c(=O)n([C@H](CC)COC)c2n1 [Example 18, N-(4-[(2R)-1-methoxybutan-2-yl]-2-{[2-(methylamino)-2-oxoethyl]amino}-3-oxo-3,4-dihydropyrido[2,3-b]pyrazin-6-yl)-N-methylpropanamide]	4190 nM	
CCC(=O)N(C)c1ccc2nc(NCC(=O)NC)c(=O)n(C(COC)COC)c2n1 [Example 19, N-(4-(1,3-dimethoxypropan-2-yl)-2-((2-(methylamino)-2-oxoethyl)amino)-3-oxo-3,4-dihydropyrido[2,3-b]pyrazin-6-yl)-N-methylpropionamide]	4030 nM	
CCC(=O)N(C)c1ccc2nc(NCCC(=O)O)c(=O)n(C3(C4CCCC4)CC3)c2n1 [Example 24, N-{4-(1-cyclopentylcyclopropyl)-6-[methyl(propanoyl)amino]-3-oxo-3,4-dihdropyrido[2,3-b]pyrazin-2-yl}-beta-alanine]	1580 nM	
CC[C@@H](c1ccccc1)n1c(=O)c(NCCC(=O)O)nc2ccc(N(C)C(=O)C3CC(C)(C)C3)nc21 [Example 25, N-(6-{[(3,3-dimethylcyclobutyl)carbonyl](methyl)amino}-3-oxo-4-[(1S)-1-phenylpropyl]-3,4-dihydropyrido[2,3-b]pyrazin-2-yl)-beta-alanine]	6370 nM	
CC[C@@H](c1ccccc1)n1c(=O)c(NCCC(=O)O)nc2ccc(N(C)C(=O)C3CC(F)(F)C3)nc21 [Example 26, N-(6-{[(3,3-difluorocyclobutyl)carbonyl](methyl)amino}-3-oxo-4-[(1S)-1-phenylpropyl]-3,4-dihydropyrido[2,3-b]pyrazin-2-yl)-beta-alanine]	7590 nM	
CC[C@@H](c1ccccc1)n1c(=O)c(NCCC(=O)O)nc2ccc(N(C)C(=O)C3COC3)nc21 [Example 27, N-{6-[methyl(oxetan-3-ylcarbonyl)amino]-3-oxo-4-[(1S)-1-phenylpropyl]-3,4-dihydropyrido[2,3-b]pyrazin-2-yl}-beta-alanine]	1500 nM	
CCOc1ccccc1Cn1c(=O)c(NCCN2CCOCC2)nc2ccc(-c3c(C)noc3C)nc21 [Example 36, 6-(3,5-dimethyl-1,2-oxazol-4-yl)-4-(2-ethoxybenzyl)-2-{[2-(morpholin-4-yl)ethyl]amino}pyrido[2,3-b]pyrazin-3(4H)-one]	2480 nM	
Cc1noc(C)c1-c1ccc2nc(NCCN3CCOCC3)c(=O)n(Cc3ccccc3)c2n1 [Example 37, 4-benzyl-6-(3,5-dimethyl-1,2-oxazol-4-yl)-2-{[2-(morpholin-4-yl)ethyl]amino}pyrido[2,3-b]pyrazin-3(4H)-one]	474 nM	
CC[C@H](c1ccccc1)n1c(=O)c(NCCN2CCOCC2)nc2ccc(-c3c(C)noc3C)nc21 [Example 38, 6-(3,5-dimethyl-1,2-oxazol-4-yl)-2-{[2-(morpholin-4-yl)ethyl]amino}-4-[(1R)-1-phenylpropyl]pyrido[2,3-b]pyrazin-3(4H)-one]	532 nM	
Cc1noc(C)c1-c1ccc2nc(NCCC(=O)O)c(=O)n(C3CCOCC3)c2n1 [Example 49, N-[6-(3,5-dimethyl-1,2-oxazol-4-yl)-3-oxo-4-(tetrahydro-2H-pyran-4-yl)-3,4-dihydropyrido[2,3-b]pyrazin-2-yl]-beta-alanine]	4870 nM	
